Test results published in patent publication US20250326738A1, “MALT1 Modulators and Uses Thereof” (Rarefied Biosciences, Inc., priority 2022, published 2025).

Experiments:
full length MALT1 = target: T1, full length MALT1 (Homo sapiens, UniProt Q9UDY8); assay: MALT1 biochemical assay (fluorogenic peptide substrate cleavage); conditions: full length MALT1, 15 nM enzyme, 30 μM peptide substrate, 30 min pre-incubation, 60 min reaction; mean if tested more than once
T1 construct: measuring enzymatic activity of full length MALT1 at varying concentrations of compound
T1 sequence (Q9UDY8 1-824): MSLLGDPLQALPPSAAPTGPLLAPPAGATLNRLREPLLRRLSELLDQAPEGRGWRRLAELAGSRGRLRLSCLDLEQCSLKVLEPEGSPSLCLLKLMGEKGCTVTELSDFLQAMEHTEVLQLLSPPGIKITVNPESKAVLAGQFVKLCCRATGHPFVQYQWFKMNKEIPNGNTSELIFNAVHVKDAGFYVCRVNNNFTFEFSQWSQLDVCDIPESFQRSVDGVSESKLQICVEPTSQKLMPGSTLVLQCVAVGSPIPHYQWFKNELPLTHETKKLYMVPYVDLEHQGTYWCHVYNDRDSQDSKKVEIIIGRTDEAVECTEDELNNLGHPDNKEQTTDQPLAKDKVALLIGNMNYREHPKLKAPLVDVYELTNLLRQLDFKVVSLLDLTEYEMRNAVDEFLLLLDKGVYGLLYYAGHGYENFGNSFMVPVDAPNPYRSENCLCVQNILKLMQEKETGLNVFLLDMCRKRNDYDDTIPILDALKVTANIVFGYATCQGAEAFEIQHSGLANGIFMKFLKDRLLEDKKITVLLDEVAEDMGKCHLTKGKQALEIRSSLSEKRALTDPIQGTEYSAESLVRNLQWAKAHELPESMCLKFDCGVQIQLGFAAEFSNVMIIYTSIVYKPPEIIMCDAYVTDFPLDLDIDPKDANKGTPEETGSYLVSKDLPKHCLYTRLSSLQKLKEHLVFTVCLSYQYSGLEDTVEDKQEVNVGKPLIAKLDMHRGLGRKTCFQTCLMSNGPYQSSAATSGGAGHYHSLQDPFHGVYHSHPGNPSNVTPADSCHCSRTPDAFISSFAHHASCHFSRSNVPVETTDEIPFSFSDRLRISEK
Method: Inhibitor potency was evaluated by measuring enzymatic activity of full length MALT1 at varying concentrations of compound. The enzymatic assay consists of a single substrate reaction that monitors the release of a fluorescent dye upon cleavage of the peptide substrate. […] The assay buffer consists of 50 mM Hepes, pH 7.5, 0.8 M sodium citrate, 1 mM DTT, 0.004% tween-20, and 0.005% bovine serum albumin (BSA). […] The reaction was quenched after 60 minutes with the addition of iodoacetate at a final concentration of 10 mM. Total fluorescence was measured using an Envision (PerkinElmer) with fluorescence excitation at 485 nm and emission at 520 nm.
The reaction was initiated with the addition of 10 μL of peptide substrate. […] IC50 values were calculated by fitting the concentration-response curves to a four-parameter logistic equation in GraphPad Prism.
“N/A” indicates not tested.

Jurkat IL-2 = Jurkat IL-2 assay (IL-2 inhibition by ELISA after anti-CD3/28/2 stimulation); type: cell-based; conditions: Homo sapiens; Jurkat clone E6.1, IL-2 in supernatant, 30 min pre-incubation, anti-CD3/28/2 stimulation 24 hours; mean if tested more than once
Method: Inhibition was determined in a cell-based assay using Jurkat (ATCC, clone E6.1), an immortalized T-cell line, exposed to a dose response of compound and assessed for viability, and IL-2 inhibition by ELISA. Cells were cultured in RPMI/10% FBS (Invitrogen 11875093, Atlanta Biologicals S12450H), maintained below 3E6/mL and only used in assays while below passage 25. Compounds were stamped by ECHO onto 384w plates (PerkinElmer Culturplate, 6007680). The cells were plated in fresh media on top of compound and incubated for 30 minutes before stimulation with soluble anti-CD3/28/2 (Stemcell, 10970) for 24 hours. Supernatant was collected and assessed for IL-2 (MSD, 384w, L21SA-1). To assess viability of cells treated with compound, cells were lysed with CTG reagent (Promega, G7570), and measured by luminometer. […] IC50s calculated using 4-parameter fit in GraphPad Prism.
“N/A” indicates not tested. For a compound that was tested in more than one experiment, the result shown represents the mean value.

Structure (SMILES)	IC50 (full length MALT1) [nM]	IC50 (Jurkat IL-2) [nM]
CN(C(=O)C1CCS(=O)(=O)CC1)[C@@H](c1ccc(Nc2cnn(C)c2C(F)(F)F)cc1)C(F)(F)F [Compound 1.1, (S)—N-methyl-N-(2,2,2-trifluoro-1-(4-((1-methyl-5-(trifluoromethyl)-1H-pyrazol-4-yl)amino)phenyl)ethyl)tetrahydro-2H-thiopyran-4-carboxamide 1,1-dioxide]	> 1000	> 1000
CN(C(=O)C1CCS(=O)(=O)CC1)[C@@H](c1ccc(Nc2cnn(-c3cccc4ncccc34)c2C(F)(F)F)cc1)C(F)(F)F [Compound 1.2]	100 to 1000	100 to 1000
Cc1ccccc1-n1ncc(Nc2ccc([C@H](N(C)C(=O)C3CCS(=O)(=O)CC3)C(F)(F)F)cc2)c1C(F)(F)F [Compound 1.3]	> 1000	100 to 1000
CN(C(=O)C1CCS(=O)(=O)CC1)[C@@H](c1ccc(Nc2cnn(C)c2-c2ccccc2)cc1)C(F)(F)F [Compound 1.4]	> 1000	> 1000
CC(C)c1c(Nc2ccc([C@H](N(C)C(=O)C3CCS(=O)(=O)CC3)C(F)(F)F)cc2)cnn1C [Compound 1.5]	> 1000	> 1000
CN(C(=O)C1CCS(=O)(=O)CC1)[C@@H](c1ccc(Nc2cnn(-c3ccccc3)c2C(F)(F)F)cc1)C(F)(F)F [Compound 1.6]	100 to 1000	100 to 1000
CN(C(=O)C1CCS(=O)(=O)CC1)[C@@H](c1ccc(Nc2cnn(C3CC3)c2C(F)(F)F)cc1)C(F)(F)F [Compound 1.7]	100 to 1000	100 to 1000
CC(C)c1c(Nc2ccc([C@H](N(C)C(=O)C3CCS(=O)(=O)CC3)C(F)(F)F)cc2)cnn1-c1ccccc1 [Compound 1.8]	100 to 1000	100 to 1000
CC(C)n1ncc(Nc2ccc([C@H](N(C)C(=O)C3CCS(=O)(=O)CC3)C(F)(F)F)cc2)c1C(F)(F)F [Compound 1.9]	100 to 1000	100 to 1000
CN(C(=O)C1CCS(=O)(=O)CC1)[C@@H](c1ccc(Nc2cnn(CC(C)(C)O)c2C(F)(F)F)cc1)C(F)(F)F [Compound 1.10]	> 1000	> 1000
COCC(C)n1ncc(Nc2ccc([C@H](N(C)C(=O)C3CCS(=O)(=O)CC3)C(F)(F)F)cc2)c1C(F)(F)F (stereo partly drawn) [Compound 1.11]	> 1000	> 1000
CN(C(=O)C1CCS(=O)(=O)CC1)[C@@H](c1ccc(Nc2cnn(CC(C)(C)C)c2C(F)(F)F)cc1)C(F)(F)F [Compound 1.12]	> 1000	> 1000
CN(C(=O)C1CCS(=O)(=O)CC1)[C@@H](c1ccc(Nc2cnn(-c3cccnc3)c2C(F)(F)F)cc1)C(F)(F)F [Compound 1.13]	< 100	< 100
CN(C(=O)C1CCS(=O)(=O)CC1)[C@@H](c1ccc(Nc2cnn(-c3ccncc3)c2C(F)(F)F)cc1)C(F)(F)F [Compound 1.14]	100 to 1000	< 100
CN(C(=O)C1CCS(=O)(=O)CC1)[C@@H](c1ccc(Nc2cnn(-c3ccccn3)c2C(F)(F)F)cc1)C(F)(F)F [Compound 1.15]	< 100	< 100
CN(C(=O)C1CCS(=O)(=O)CC1)[C@@H](c1ccc(Nc2cnn(-c3ccccc3C#N)c2C(F)(F)F)cc1)C(F)(F)F [Compound 1.16]	100 to 1000	100 to 1000
CN(C(=O)C1CCS(=O)(=O)CC1)[C@@H](c1ccc(Nc2cnn(-c3cccc(C#N)c3)c2C(F)(F)F)cc1)C(F)(F)F [Compound 1.17]	< 100	< 100
CN(C(=O)C1CCS(=O)(=O)CC1)[C@@H](c1ccc(Nc2cnn(-c3ncccn3)c2C(F)(F)F)cc1)C(F)(F)F [Compound 1.18]	> 1000	> 1000
CN(C(=O)C1CCS(=O)(=O)CC1)[C@@H](c1ccc(Nc2cnn(-c3cnccn3)c2C(F)(F)F)cc1)C(F)(F)F [Compound 1.19]	100 to 1000	< 100

Structure (SMILES)	IC50 (full length MALT1) [nM]	IC50 (Jurkat IL-2) [nM]
CN(C(=O)C1CCS(=O)(=O)CC1)[C@@H](c1ccc(Nc2cnn(-c3ccncn3)c2C(F)(F)F)cc1)C(F)(F)F [Compound 1.20]	< 100	< 100
CN(C(=O)C1CCS(=O)(=O)CC1)[C@@H](c1ccc(Nc2cnn(-c3cccnn3)c2C(F)(F)F)cc1)C(F)(F)F [Compound 1.21]	< 100	< 100
CN(C(=O)C1CCS(=O)(=O)CC1)[C@@H](c1ccc(Nc2cnn(-c3ccnnc3)c2C(F)(F)F)cc1)C(F)(F)F [Compound 1.22]	< 100	100 to 1000
COC(C)c1c(Nc2ccc([C@H](N(C)C(=O)C3CCS(=O)(=O)CC3)C(F)(F)F)cc2)cnn1-c1cccnc1 (stereo partly drawn) [Compound 1.23]	100 to 1000	100 to 1000
CC(O)c1c(Nc2ccc([C@H](N(C)C(=O)C3CCS(=O)(=O)CC3)C(F)(F)F)cc2)cnn1-c1cccnc1 (stereo partly drawn) [Compound 1.24]	< 100	100 to 1000
CC(=O)N1CCC(C(=O)N(C)[C@@H](c2ccc(Nc3cnn(-c4ccccc4)c3C(F)(F)F)cc2)C(F)(F)F)CC1 [Compound 1.25]	100 to 1000	< 100
CC(=O)N1CCC(C(=O)N(C)[C@@H](c2ccc(Nc3cnn(-c4ccccc4)c3C(C)C)cc2)C(F)(F)F)CC1 [Compound 1.26]	100 to 1000	100 to 1000
CC(=O)N1CCC(C(=O)N(C)[C@@H](c2ccc(Nc3cnn(-c4cccnc4)c3C(F)(F)F)cc2)C(F)(F)F)CC1 [Compound 1.27]	< 100	< 100
CC(=O)N1CCC(C(=O)N(C)[C@@H](c2ccc(Nc3cnn(-c4cccc(C#N)c4)c3C(F)(F)F)cc2)C(F)(F)F)CC1 [Compound 1.28]	< 100	< 100
CC(=O)N1CCC(C(=O)N(C)[C@@H](c2ccc(Nc3cnn(-c4ccccn4)c3C(F)(F)F)cc2)C(F)(F)F)CC1 [Compound 1.29]	100 to 1000	< 100
CO[C@@H](C)c1c(Nc2ccc([C@H](N(C)C(=O)C3CCN(C(C)=O)CC3)C(F)(F)F)cc2)cnn1-c1ccccc1 [Compound 1.31]	100 to 1000	100 to 1000
CO[C@@H](C)c1c(Nc2ccc([C@H](N(C)C(=O)C3CCN(C(C)=O)CC3)C(F)(F)F)cc2)cnn1-c1ccccn1 [Compound 1.32]	< 100	100 to 1000
CO[C@@H](C)c1c(Nc2ccc([C@H](N(C)C(=O)C3CCN(C(C)=O)CC3)C(F)(F)F)cc2)cnn1-c1ccncc1 [Compound 1.33]	100 to 1000	100 to 1000
CO[C@@H](C)c1c(Nc2ccc([C@H](N(C)C(=O)C3CCN(C(C)=O)CC3)C(F)(F)F)cc2)cnn1-c1cccnc1 [Compound 1.34]	100 to 1000	100 to 1000
CC(=O)N1CC(C(=O)N(C)[C@@H](c2ccc(Nc3cnn(-c4cccc(C#N)c4)c3C(F)(F)F)cc2)C(F)(F)F)C1 [Compound 1.35]	100 to 1000	< 100
CC(=O)N1CC(C(=O)N(C)[C@@H](c2ccc(Nc3cnn(-c4cccnc4)c3C(F)(F)F)cc2)C(F)(F)F)C1 [Compound 1.36]	< 100	< 100
CC(=O)N1CC(C(=O)N(C)[C@@H](c2ccc(Nc3cnn(-c4ccccn4)c3C(F)(F)F)cc2)C(F)(F)F)C1 [Compound 1.37]	< 100	< 100
CO[C@@H](C)c1c(Nc2ccc([C@H](N(C)C(=O)C3CN(C(C)=O)C3)C(F)(F)F)cc2)cnn1-c1ccccc1 [Compound 1.38]	100 to 1000	100 to 1000
CC(=O)N1CC(C(=O)N(C)[C@@H](c2ccc(Nc3cnn(-c4cccnc4)c3C3CC3)cc2)C(F)(F)F)C1 [Compound 1.41]	–	100 to 1000
